Assay results as given in ChEMBL document CHEMBL3244307, “Replacement of the disulfide bond in oxytocin by an amide group. Synthesis and some biological properties of (cyclo-(1-L-aspartic acid,6-L-alpha,beta-diaminopropionic acid))oxytocin” (1978).
The source made the active and inactive calls. The rule behind the calls is not given here. Where a SMILES comes first, the peptide text is derived from it. Bridges are numbered along the chain shown (N, C = ends). [ ]: non-standard residue; d: D form. ξ: configuration not given here. ξDap = NCC(N)C(=O)O; βAla = NCCC(=O)O

What was measured:
[1] = test system: Gallus gallus; assay: Effect on vasodepressor activity in conscious chicken; type: functional
[2] = species: Rattus norvegicus; assay: Uterotonic activity in rat; type: functional
[3] = species: Rattus norvegicus; assay: Antidiuretic activity in rat; type: functional, Urine
[4] = species: Rattus norvegicus; assay: Effect on pressor response in rat; type: functional, organism-based

In the case of CC[C@H](C)[C@@H]1NC(=O)[C@H](Cc2ccc(O)cc2)NC(=O)[C@@H](N)CC(=O)NCC(C(=O)N2CCC[C@H]2C(=O)N[C@@H](CC(C)C)C(=O)NCC(N)=O)NC(=O)[C@H](CC(N)=O)NC(=O)[C@H](CCC(N)=O)NC1=O (stereo partly drawn) (H-DYIQN[ξDap]PLG-NH2; lactam 1-6), the Activity [1] was 6.6 U/mg, the Activity [2] was 16 U/mg and the Activity [3] was 5.6 U/mg. The Activity [4] was “Active”.

For CC[C@H](C)[C@@H]1NC(=O)[C@H](Cc2ccc(O)cc2)NC(=O)CCNC(=O)C[C@@H](C(=O)N2CCC[C@H]2C(=O)N[C@@H](CC(C)C)C(=O)NCC(N)=O)NC(=O)[C@H](CC(N)=O)NC(=O)[C@H](CCC(N)=O)NC1=O ([βAla]YIQNDPLG-NH2; lactam N-6), the Activity [2] was 1.13 U/mg.

CC[C@H](C)[C@@H]1NC(=O)[C@H](Cc2ccc(O)cc2)NC(=O)[C@@H](N)CSSC[C@@H](C(=O)N2CCC[C@H]2C(=O)N[C@@H](CC(C)C)C(=O)NCC(N)=O)NC(=O)[C@H](CC(N)=O)NC(=O)[C@H](CCC(N)=O)NC1=O [OXYTOCIN] was tested, and the Activity [1] was 500 U/mg, the Activity [2] was 540 U/mg and the Activity [3] was 3 U/mg.
